Measurements from PMC9437215, “Synthesis and antibacterial activity evaluation of N (7) position-modified balofloxacins” (Frontiers in Chemistry, 2022).
Converted amounts (≈) assume the structure as drawn. Where two headings read alike, the source gives them in different places.

Experiments:
MRSA = test: MIC and MBC determinations in vitro, MRSA; type: cell-based; details: MRSA clinical isolate; for MIC: 24 h culture, read-out: MIC; for MBC: solid medium 24 h
Procedure: (§1) The three strains of MRSA, P. aeruginosa, and E. coli used in this experiment were from clinical isolates, which were provided by the People’s Liberation Army 304 Hospital.
(§2) To evaluate the antibacterial activities of newly synthesized N (7) position modified fluoroquinolones, the minimum inhibitory (MIC) and bactericidal (MBC) concentrations of these compounds toward bacteria were measured.

P. aeruginosa = test: MIC and MBC determinations in vitro, P. aeruginosa; type: cell-based; details: Pseudomonas aeruginosa, P. aeruginosa clinical isolate; for MIC: 24 h culture, read-out: MIC; for MBC: solid medium 24 h, read-out: MBC
Procedure: as §1, §2

E. coli = test: MIC and MBC determinations in vitro, E. coli; type: cell-based; details: Escherichia coli, E. coli clinical isolate; for MIC: 24 h culture; for MBC: solid medium 24 h
Procedure: as §1, §2

[1] = Staphylococcus aureus, MRSA, 24 h
[2] = Staphylococcus aureus, MRSA, 24 h, read-out: MBC

Row | Structure (SMILES) | MIC (MRSA; [1]) | MBC (MRSA; [2]) | MIC (P. aeruginosa) | MBC (P. aeruginosa) | MIC (E. coli) | MBC (E. coli) | MBC (MRSA) | melting point
1 | COc1c(N2CCCC(N(C)C(=O)CN)C2)c(F)cc2c(=O)c(C(=O)O)cn(C3CC3)c12 (centres unmarked) [Compound 20-e, 7-(3-(2-Amino-N-methylacetamido)piperidin-1-yl)-1-cyclopropyl-6-fluoro-8-methoxy-4-oxo-1,4-dihydroquinoline-3-carboxylic acid] | 25 µg/mL (≈ 56 µM) | 50 µg/mL (≈ 112 µM) | 0.78 µg/mL (≈ 1.75 µM) | 6.25 µg/mL (≈ 14 µM) | 25 µg/mL (≈ 56 µM) | 50 µg/mL (≈ 112 µM) |  | 
2 | CCCCC(=O)N(C)C1CCCN(c2c(F)cc3c(=O)c(C(=O)O)cn(C4CC4)c3c2OC)C1 (centres unmarked) [Compound 5-e, 1-Cyclopropyl-6-fluoro-8-methoxy-7-(3-(N-methylpentanamido)piperidin-1-yl)-4-oxo-1,4-dihydroquinoline-3-carboxylic acid] | 0.078 µg/mL (≈ 0.165 µM) | 0.156 µg/mL (≈ 0.329 µM) | 0.078 µg/mL (≈ 0.165 µM) | 0.156 µg/mL (≈ 0.329 µM) | 10 µg/mL (≈ 21.1 µM) | 20 µg/mL (≈ 42.2 µM) |  | 
3 | COc1c(N2CCCC(N(C)C)C2)c(F)cc2c(=O)c(C(=O)O)cn(C3CC3)c12 (centres unmarked) [Compound 21-e, 1-Cyclopropyl-7-(3-(dimethylamino)piperidin-1-yl)-6-fluoro-8-methoxy-4-oxo-1,4-dihydroquinoline-3-carboxylic acid] | 0.078 µg/mL (≈ 0.193 µM) | 0.31 µg/mL (≈ 0.768 µM) | 0.313 µg/mL (≈ 0.776 µM) | 0.313 µg/mL (≈ 0.776 µM) | 0.625 µg/mL (≈ 1.55 µM) | 0.625 µg/mL (≈ 1.55 µM) | 0.313 µg/mL (≈ 0.776 µM) | 
4 | CCC(=O)N(C)C1CCCN(c2c(F)cc3c(=O)c(C(=O)O)cn(C4CC4)c3c2OC)C1 (centres unmarked) [Compound 3-e, 1-Cyclopropyl-6-fluoro-8-methoxy-7-(3-(N-methylpropionamido)piperidin-1-yl)-4-oxo-1,4-dihydroquinoline-3-carboxylic acid] | 0.039 µg/mL (≈ 0.0875 µM) | 0.078 µg/mL (≈ 0.175 µM) | 0.078 µg/mL (≈ 0.175 µM) | 0.078 µg/mL (≈ 0.175 µM) | 5 µg/mL (≈ 11.2 µM) | 10 µg/mL (≈ 22.4 µM) |  | 
5 | COc1c(N2CCCC(N(C)C(=O)c3cccnc3)C2)c(F)cc2c(=O)c(C(=O)O)cn(C3CC3)c12 (centres unmarked) [Compound 15-e, 1-Cyclopropyl-6-fluoro-8-methoxy-7-(3-(N-methylnicotinamido)piperidin-1-yl)-4-oxo-1,4-dihydroquinoline-3-carboxylic acid] | 0.078 µg/mL (≈ 0.158 µM) | 0.156 µg/mL (≈ 0.315 µM) | 0.078 µg/mL (≈ 0.158 µM) | 0.156 µg/mL (≈ 0.315 µM) | 10 µg/mL (≈ 20.2 µM) | 20 µg/mL (≈ 40.4 µM) |  | 
6 | CCCC(=O)N(C)C1CCCN(c2c(F)cc3c(=O)c(C(=O)O)cn(C4CC4)c3c2OC)C1 (centres unmarked) [Compound 4-e, 1-Cyclopropyl-6-fluoro-8-methoxy-7-(3-(N-methylbutyramido)piperidin-1-yl)-4-oxo-1,4-dihydroquinoline-3-carboxylic acid] | 0.039 µg/mL (≈ 0.0849 µM) | 0.078 µg/mL (≈ 0.17 µM) | 0.078 µg/mL (≈ 0.17 µM) | 0.078 µg/mL (≈ 0.17 µM) | 5 µg/mL (≈ 10.9 µM) | 20 µg/mL (≈ 43.5 µM) |  | 
7 | COc1c(N2CCCC(N(C)C(=O)C3CC3)C2)c(F)cc2c(=O)c(C(=O)O)cn(C3CC3)c12 (centres unmarked) [Compound 11-e, 1-Cyclopropyl-6-fluoro-8-methoxy-7-(3-(N-methylcyclopropanecarboxamido)piperidin-1-yl)-4-oxo-1,4-dihydroquinoline-3-carboxylic acid] | 0.039 µg/mL (≈ 0.0852 µM) | 0.078 µg/mL (≈ 0.17 µM) | 0.078 µg/mL (≈ 0.17 µM) | 0.156 µg/mL (≈ 0.341 µM) | 10 µg/mL (≈ 21.9 µM) | 20 µg/mL (≈ 43.7 µM) |  | 104.6 to 106.5 °C
8 | COc1c(N2CCCC(N(C)C(=O)c3ccco3)C2)c(F)cc2c(=O)c(C(=O)O)cn(C3CC3)c12 (centres unmarked) [Compound 13-e, 1-Cyclopropyl-6-fluoro-8-methoxy-7-(3-(N-methylfuran-2-carboxamido)piperidin-1-yl)-4-oxo-1,4-dihydroquinoline-3-carboxylic acid] | 0.078 µg/mL (≈ 0.161 µM) | 0.156 µg/mL (≈ 0.323 µM) | 0.078 µg/mL (≈ 0.161 µM) | 0.156 µg/mL (≈ 0.323 µM) | 10 µg/mL (≈ 20.7 µM) | 20 µg/mL (≈ 41.4 µM) |  | 167.5 to 168.7 °C
9 | CCCCCCC(=O)N(C)C1CCCN(c2c(F)cc3c(=O)c(C(=O)O)cn(C4CC4)c3c2OC)C1 (centres unmarked) [Compound 7-e, 1-Cyclopropyl-6-fluoro-8-methoxy-7-(3-(N-methylheptanamido)piperidin-1-yl)-4-oxo-1,4-dihydroquinoline-3-carboxylic acid] | 0.313 µg/mL (≈ 0.624 µM) | 0.625 µg/mL (≈ 1.25 µM) | 0.625 µg/mL (≈ 1.25 µM) | 1.25 µg/mL (≈ 2.49 µM) | > 40 µg/mL | > 40 µg/mL |  | 
10 | COc1c(N2C[C@@H]3CCCN[C@@H]3C2)c(F)cc2c(=O)c(C(=O)O)cn(C3CC3)c12 [Compound 1f, moxifloxacin, reference compound] | 0.039 µg/mL (≈ 0.0972 µM) | 0.039 µg/mL (≈ 0.0972 µM) | 0.039 µg/mL (≈ 0.0972 µM) | 0.039 µg/mL (≈ 0.0972 µM) | 0.039 µg/mL (≈ 0.0972 µM) | 0.039 µg/mL (≈ 0.0972 µM) |  | 
11 | CCCCCCCC(=O)N(C)C1CCCN(c2c(F)cc3c(=O)c(C(=O)O)cn(C4CC4)c3c2OC)C1 (centres unmarked) [Compound 8-e, 1-Cyclopropyl-6-fluoro-8-methoxy-7-(3-(N-methyloctanamido)piperidin-1-yl)-4-oxo-1,4-dihydroquinoline-3-carboxylic acid] | 1.25 µg/mL (≈ 2.42 µM) | 5 µg/mL (≈ 9.7 µM) | 1.25 µg/mL (≈ 2.42 µM) | 5 µg/mL (≈ 9.7 µM) | > 40 µg/mL | > 40 µg/mL |  | 68.2 to 70 °C
12 | COc1c(N2CCCC(N(C)C(=O)C3CCCO3)C2)c(F)cc2c(=O)c(C(=O)O)cn(C3CC3)c12 (centres unmarked) [Compound 14-e, 1-Cyclopropyl-6-fluoro-8-methoxy-7-(3-(N-methyltetrahydrofuran-2-carboxamido)piperidin-1-yl)-4-oxo-1,4-dihydroquinoline-3-carboxylic acid] | 0.078 µg/mL (≈ 0.16 µM) | 0.156 µg/mL (≈ 0.32 µM) | 0.156 µg/mL (≈ 0.32 µM) | 0.313 µg/mL (≈ 0.642 µM) | 20 µg/mL (≈ 41 µM) | 20 µg/mL (≈ 41 µM) |  | 140.2 to 141.2 °C
13 | COc1c(N2CCCC(N(C)C(=O)CC#N)C2)c(F)cc2c(=O)c(C(=O)O)cn(C3CC3)c12 (centres unmarked) [Compound 22-e, 7-(3-(2-Cyano-N-methylacetamido)piperidin-1-yl)-1-cyclopropyl-6-fluoro-8-methoxy-4-oxo-1,4-dihydroquinoline-3-carboxylic acid] | 0.39 µg/mL (≈ 0.854 µM) | 0.78 µg/mL (≈ 1.71 µM) | 0.78 µg/mL (≈ 1.71 µM) | 1.56 µg/mL (≈ 3.42 µM) | 0.78 µg/mL (≈ 1.71 µM) | 1.56 µg/mL (≈ 3.42 µM) |  | 184.8 to 186.2 °C
14 | COc1c(N2CCCC(N(C)C(=O)Cn3cncn3)C2)c(F)cc2c(=O)c(C(=O)O)cn(C3CC3)c12 (centres unmarked) [Compound e-1, 1-Cyclopropyl-6-fluoro-8-methoxy-7-(3-(N-methyl-2-(1H-1,2,4-triazol-1-yl)acetamido)piperidin-1-yl)-4-oxo-1,4-dihydroquinoline-3-carboxylic acid] | 0.156 µg/mL (≈ 0.313 µM) | 0.312 µg/mL (≈ 0.626 µM) | 0.156 µg/mL (≈ 0.313 µM) | 0.313 µg/mL (≈ 0.628 µM) | 0.156 µg/mL (≈ 0.313 µM) | 0.313 µg/mL (≈ 0.628 µM) | 0.313 µg/mL (≈ 0.628 µM) | 
15 | COc1c(N2CCCC(N(C)C(=O)C(C)N)C2)c(F)cc2c(=O)c(C(=O)O)cn(C3CC3)c12 (centres unmarked) [Compound 19-e, 7-(3-(2-Amino-N-methylpropanamido)piperidin-1-yl)-1-cyclopropyl-6-fluoro-8-methoxy-4-oxo-1,4-dihydroquinoline-3-carboxylic acid] | 1.56 µg/mL (≈ 3.39 µM) | 3.12 µg/mL (≈ 6.79 µM) | 0.39 µg/mL (≈ 0.847 µM) | 1.56 µg/mL (≈ 3.39 µM) | 12.5 µg/mL (≈ 27.1 µM) | 25 µg/mL (≈ 54.3 µM) |  | 
16 | CCCCCCCCCC(=O)N(C)C1CCCN(c2c(F)cc3c(=O)c(C(=O)O)cn(C4CC4)c3c2OC)C1 (centres unmarked) [Compound 10-e, 1-Cyclopropyl-6-fluoro-8-methoxy-7-(3-(N-methyldecanamido)piperidin-1-yl)-4-oxo-1,4-dihydroquinoline-3-carboxylic acid] | 5 µg/mL (≈ 9.2 µM) | 20 µg/mL (≈ 36.8 µM) | 5 µg/mL (≈ 9.2 µM) | 20 µg/mL (≈ 36.8 µM) | > 40 µg/mL | > 40 µg/mL |  | 65.2 to 68.1 °C
17 | COc1c(N2CC3CCCN(C(=O)Cn4cncn4)C3C2)c(F)cc2c(=O)c(C(=O)O)cn(C3CC3)c12 (centres unmarked) [Compound f-1, 7-(1-(2-(1H-1,2,4-Triazol-1-yl)acetyl)octahydro-6H-pyrrolo[3,4-b]pyridin-6-yl)-1-cyclopropyl-6-fluoro-8-methoxy-4-oxo-1,4-dihydroquinoline-3-carboxylic acid] | 0.313 µg/mL (≈ 0.613 µM) | 2.5 µg/mL (≈ 4.9 µM) | 1.25 µg/mL (≈ 2.45 µM) | 2.5 µg/mL (≈ 4.9 µM) | 0.625 µg/mL (≈ 1.22 µM) | 2.5 µg/mL (≈ 4.9 µM) |  | 
18 | COc1c(N2CCCC(N(C)C(=O)c3ccccc3)C2)c(F)cc2c(=O)c(C(=O)O)cn(C3CC3)c12 (centres unmarked) [Compound 12-e, 1-Cyclopropyl-6-fluoro-8-methoxy-7-(3-(N-methylbenzamido)piperidin-1-yl)-4-oxo-1,4-dihydroquinoline-3-carboxylic acid] | 0.078 µg/mL (≈ 0.158 µM) | 0.313 µg/mL (≈ 0.634 µM) | 0.156 µg/mL (≈ 0.316 µM) | 0.313 µg/mL (≈ 0.634 µM) | 20 µg/mL (≈ 40.5 µM) | 20 µg/mL (≈ 40.5 µM) |  | 
19 | CCCCCC(=O)N(C)C1CCCN(c2c(F)cc3c(=O)c(C(=O)O)cn(C4CC4)c3c2OC)C1 (centres unmarked) [Compound 6-e, 1-Cyclopropyl-6-fluoro-8-methoxy-7-(3-(N-methylhexanamido)piperidin-1-yl)-4-oxo-1,4-dihydroquinoline-3-carboxylic acid] | 0.156 µg/mL (≈ 0.32 µM) | 0.625 µg/mL (≈ 1.28 µM) | 0.313 µg/mL (≈ 0.642 µM) | 0.625 µg/mL (≈ 1.28 µM) | 20 µg/mL (≈ 41 µM) | 20 µg/mL (≈ 41 µM) |  | 
20 | COc1c(N2CC3CCCN(C(C)=O)C3C2)c(F)cc2c(=O)c(C(=O)O)cn(C3CC3)c12 (centres unmarked) [Compound 2-f, 7-(1-Acetyloctahydro-6H-pyrrolo[3,4-b]pyridin-6-yl)-1-cyclopropyl-6-fluoro-8-methoxy-4-oxo-1,4-dihydroquinoline-3-carboxylic acid] | 0.313 µg/mL (≈ 0.706 µM) | 0.625 µg/mL (≈ 1.41 µM) | 0.313 µg/mL (≈ 0.706 µM) | 0.625 µg/mL (≈ 1.41 µM) | 0.313 µg/mL (≈ 0.706 µM) | 0.625 µg/mL (≈ 1.41 µM) |  | 
